Test results from patent publication US12077503B2, “Substituted cyclic amides and their use as herbicides” (FMC CORPORATION, priority 2015, dated 2024).

What was measured:
Assay type in all cases: in vivo
[1] = tested on: barnyardgrass (Echinochloa crus-galli); assay: Test G Pre-Emergence Protocol; details: evaluated after 13 days
Description: (§1) Seeds of corn (Zea mays), giant foxtail (Setaria faberi), barnyardgrass (Echinochloa crus-galli), ivy-leaved morning glory (Ipomoea hederacea), redroot pigweed (Amaranthus retroflexus) and velvetleaf (Abutilon theophrasti) were sown in standard soil in pots. After cultivation for one day under controlled conditions in a glasshouse (at 24/16° C., day/night; 14 hours light; 65% humidity), the plants were sprayed with an aqueous spray solution derived from the formulation of the technical active ingredient in acetone/water (50:50) solution containing 0.5% Tween 20 (polyoxyethylene sorbitan monolaurate, CAS RN 9005-64-5) to give a final dose of 15.625, 62.5 or 250 g/ha of test compound.
(§2) The test plants were then grown on under controlled conditions in a glasshouse (at 24/16° C., day/night; 14 hours light; 65% humidity) and watered twice daily. After 13 days the test was evaluated (100=total damage to plant; 0=no damage to plant). A dash (-) means no test result.

corn (Zea mays) [2] = assay: Test G Pre-Emergence Protocol; details: evaluated after 13 days
Description: as §1, §2

[3] = tested on: giant foxtail (Setaria faberi); assay: Test G Pre-Emergence Protocol; details: evaluated after 13 days
Description: as §1, §2

[4] = tested on: ivy-leaved morning glory (Ipomoea hederacea); assay: Test G Pre-Emergence Protocol; details: evaluated after 13 days
Description: as §1, §2

[5] = tested on: redroot pigweed (Amaranthus retroflexus); assay: Test G Pre-Emergence Protocol; details: evaluated after 13 days
Description: as §1, §2

[6] = tested on: velvetleaf (Abutilon theophrasti); assay: Test G Pre-Emergence Protocol; details: evaluated after 13 days
Description: as §1, §2

[7] = tested on: barnyardgrass (Echinochloa crus-galli); assay: Test G Post-Emergence Protocol
Description: as §1, with “8 days” for “one day”
as §2

corn (Zea mays) [8] = assay: Test G Post-Emergence Protocol
Description: as §1, with “8 days” for “one day”
as §2

[9] = tested on: giant foxtail (Setaria faberi); assay: Test G Post-Emergence Protocol
Description: as §1, with “8 days” for “one day”
as §2

[10] = tested on: ivy-leaved morning glory (Ipomoea hederacea); assay: Test G Post-Emergence Protocol
Description: as §1, with “8 days” for “one day”
as §2

[11] = tested on: redroot pigweed (Amaranthus retroflexus); assay: Test G Post-Emergence Protocol
Description: as §1, with “8 days” for “one day”
as §2

[12] = tested on: velvetleaf (Abutilon theophrasti); assay: Test G Post-Emergence Protocol
Description: as §1, with “8 days” for “one day”
as §2

[13] = 62.5 g ai/ha, 100=total damage to plant, 0=no damage to plant
[14] = 15.625 g ai/ha, evaluated after 13 days (100=total damage to plant; 0=no damage to plant)
[15] = 62.5 g ai/ha, evaluated after 13 days
[16] = 250 g ai/ha, evaluated after 13 days

Cc1ccc(NC(=O)C2C(=O)N(C)CC2c2ccc(C(F)(F)F)cc2)c([N+](=O)[O-])c1 (racemic) [Compound 1592]
50: Barnyardgrass damage rating (100=total damage to plant; 0=no damage to plant) ([1]; 250 g ai/ha)
60: Foxtail, Giant damage rating (100=total damage to plant; 0=no damage to plant) [9, 15] | damage to plant, Morningglory, Ivy-leaved (100=total damage to plant; 0=no damage to plant) [10, 16]
0: Barnyardgrass damage rating (100=total damage to plant; 0=no damage to plant) ([1]; 15.625 g ai/ha) | Corn damage rating (100=total damage to plant; 0=no damage to plant) (corn (Zea mays) [2]; 15.625 g ai/ha) | plant damage rating, Corn (corn (Zea mays) [2]; [13]) | Corn damage rating (100=total damage to plant; 0=no damage to plant) (corn (Zea mays) [2]; 250 g ai/ha) | Foxtail, Giant damage rating (100=total damage to plant; 0=no damage to plant) ([3]; 15.625 g ai/ha) | plant damage rating, Morningglory, Ivy-leaved [4, 13] | Pigweed, Redroot damage rating (100=total damage to plant; 0=no damage to plant) ([5]; 15.625 g ai/ha) | plant damage rating, Pigweed, Redroot [5, 13] | Velvetleaf damage rating (100=total damage to plant; 0=no damage to plant) ([6]; 15.625 g ai/ha) | plant damage rating, Velvetleaf [6, 13] | Velvetleaf damage rating (100=total damage to plant; 0=no damage to plant) ([6]; 250 g ai/ha) | Barnyardgrass damage rating [7, 14] | Corn damage rating (corn (Zea mays) [8]; [14]) | Corn damage rating (100=total damage to plant; 0=no damage to plant) (corn (Zea mays) [8]; [15]) | Foxtail, Giant damage rating [9, 14] | Morningglory, Ivy-leaved damage rating [10, 14] | Pigweed, Redroot damage rating [11, 14] | Pigweed, Redroot damage rating (100=total damage to plant; 0=no damage to plant) [11, 15] | Velvetleaf damage rating [12, 14]
70: Foxtail, Giant damage rating (100=total damage to plant; 0=no damage to plant) ([3]; 250 g ai/ha) | damage to plant, Foxtail, Giant (100=total damage to plant; 0=no damage to plant) [9, 16]
40: Morningglory, Ivy-leaved damage rating (100=total damage to plant; 0=no damage to plant) [10, 15]
10: plant damage rating, Barnyardgrass [1, 13] | Morning-glory, Ivy-leaved damage rating (100=total damage to plant; 0=no damage to plant) ([4]; 15.625 g ai/ha) | Morningglory, Ivy-leaved damage rating (100=total damage to plant; 0=no damage to plant) ([4]; 250 g ai/ha) | Barnyardgrass damage rating (100=total damage to plant; 0=no damage to plant) [7, 15] | damage to plant, Corn (100=total damage to plant; 0=no damage to plant) (corn (Zea mays) [8]; [16]) | damage to plant, Pigweed, Redroot (100=total damage to plant; 0=no damage to plant) [11, 16] | Velvetleaf damage rating (100=total damage to plant; 0=no damage to plant) [12, 15] | damage to plant, Velvetleaf (100=total damage to plant; 0=no damage to plant) [12, 16]
30: Pigweed, Redroot damage rating (100=total damage to plant; 0=no damage to plant) ([5]; 250 g ai/ha) | damage to plant, Barnyardgrass (100=total damage to plant; 0=no damage to plant) [7, 16]
20: plant damage rating, Foxtail, Giant [3, 13]
